Assay results reported in ChEMBL document CHEMBL1135236, “Synthesis of iodinated 3beta-aryltropanes with selective binding to either the dopamine or serotonin transporters” (Bioorg Med Chem Lett, 2002).

Columns and labels:
[1] = target: Sodium-dependent dopamine transporter (Rattus norvegicus, UniProt P23977); assay: Tested for the ability to displace [125I]- RTI-55 binding in rat striatal membrane against dopamine transporter; format: cell membranes, Striatum
[2] = target: Sodium-dependent serotonin transporter (Rattus norvegicus, UniProt P31652); assay: Tested for the ability to displace [3H]- paroxetine binding in rat frontal cortex membrane against Serotonin transporter; format: cell membranes
Chain of Sodium-dependent serotonin transporter (P31652 whole entry): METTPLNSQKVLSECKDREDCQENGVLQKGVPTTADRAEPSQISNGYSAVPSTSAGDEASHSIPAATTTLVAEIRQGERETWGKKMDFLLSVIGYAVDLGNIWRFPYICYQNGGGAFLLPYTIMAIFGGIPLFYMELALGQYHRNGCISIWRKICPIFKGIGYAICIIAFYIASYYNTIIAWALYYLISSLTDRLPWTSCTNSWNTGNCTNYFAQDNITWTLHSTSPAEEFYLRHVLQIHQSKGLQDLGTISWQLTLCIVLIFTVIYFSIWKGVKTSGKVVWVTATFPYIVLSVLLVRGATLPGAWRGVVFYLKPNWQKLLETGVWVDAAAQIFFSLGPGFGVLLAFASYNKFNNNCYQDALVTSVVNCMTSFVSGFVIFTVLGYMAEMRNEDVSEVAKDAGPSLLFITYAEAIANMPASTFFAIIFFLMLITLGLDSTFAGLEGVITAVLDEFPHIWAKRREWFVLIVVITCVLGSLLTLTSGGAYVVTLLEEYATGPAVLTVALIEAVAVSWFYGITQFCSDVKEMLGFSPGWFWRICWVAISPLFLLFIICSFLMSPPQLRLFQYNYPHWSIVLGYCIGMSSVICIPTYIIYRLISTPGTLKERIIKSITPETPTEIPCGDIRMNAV

[3] = target: Sodium-dependent serotonin transporter (Rattus norvegicus) (UniProt P31652); assay: Ratio of serotonin transporter potency to that of dopamine transporter potency
Chain of Sodium-dependent serotonin transporter (Rattus norvegicus) (P31652 whole entry): as above

Chain of Sodium-dependent dopamine transporter (P23977 whole entry): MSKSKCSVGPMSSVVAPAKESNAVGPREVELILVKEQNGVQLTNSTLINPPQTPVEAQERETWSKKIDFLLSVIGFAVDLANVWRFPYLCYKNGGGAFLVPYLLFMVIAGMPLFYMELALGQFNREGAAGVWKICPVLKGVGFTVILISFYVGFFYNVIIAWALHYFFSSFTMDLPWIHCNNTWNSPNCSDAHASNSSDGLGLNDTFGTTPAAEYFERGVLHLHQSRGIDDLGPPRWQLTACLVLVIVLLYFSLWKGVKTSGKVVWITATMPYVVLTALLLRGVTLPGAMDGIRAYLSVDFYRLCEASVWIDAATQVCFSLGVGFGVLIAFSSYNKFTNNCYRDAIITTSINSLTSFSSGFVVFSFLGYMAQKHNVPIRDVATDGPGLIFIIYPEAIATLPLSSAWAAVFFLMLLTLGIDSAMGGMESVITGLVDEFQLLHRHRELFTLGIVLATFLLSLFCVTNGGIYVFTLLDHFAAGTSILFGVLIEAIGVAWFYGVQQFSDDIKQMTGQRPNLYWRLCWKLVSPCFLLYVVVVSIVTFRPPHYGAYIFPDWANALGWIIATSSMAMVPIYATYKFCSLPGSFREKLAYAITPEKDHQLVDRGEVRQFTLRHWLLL

Compound | IC50 [1] [nM] | Ki [2] [nM] | Ratio [3]
CCC(=O)C1C2CCC(CC1c1ccc(/C=C(/C)I)cc1)N2 (centres undefined) | 66.5 | 0.13 | 510
CCC(=O)C1C2CCC(CC1c1ccc(/C=C(\C)I)cc1)N2 (centres undefined) | 401 | 0.57 | 710
CCC(=O)C1C(c2ccc(I)cc2)CC2CCC1N2C (centres undefined) | 1.69 | 1.88 | 0.9
CCC(=O)C1C(c2cccc(I)c2)CC2CCC1N2C (centres undefined) | 56.5 | 19.7 | 2.9
CCC(=O)C1C(c2ccc(I)c(Cl)c2)CC2CCC1N2C (centres undefined) | 0.077 | 1.14 | 0.067
CCC(=O)C1C2CCC(CC1c1ccc(I)cc1)N2 (centres undefined) | 2.2 | 2.44 | 0.9
CCC(=O)C1C2CCC(CC1c1ccc(I)c(Cl)c1)N2 (centres undefined) | 0.085 | 1.08 | 0.079
CCC(=O)C1C(c2ccc(-c3cccn3C)cc2)CC2CCC1N2C/C=C\I (centres undefined) | 1120 | 13.1 | 86
Cc1ccc([C@H]2CC3CCC([C@H]2C(=O)C(C/C=C/I)C/C=C/I)N3C)cc1 (some centres undefined) | 47.2 | > 1100 | –
Cc1ccc(C2CC3CCC(C2C(=O)CC/C=C/I)N3C)cc1 (centres undefined) | 13.3 | 50.8 | 0.26
CCC(=O)C1C2CCC(CC1c1ccc(I)c(F)c1)N2 (centres undefined) | 1.08 | 7.26 | 0.15
CCC(=O)C1C(c2ccc(I)c(F)c2)CC2CCC1N2C (centres undefined) | 0.38 | 9.07 | 0.041
CCC(=O)C1C2CCC(CC1c1cccc(I)c1)N2 (centres undefined) | 19.8 | 15.7 | 1.3
CCC(=O)C1C2CCC(CC1c1ccc(/C=C/I)cc1)N2 (centres undefined) | 51.3 | 0.62 | 83
CCC(=O)C1C(c2ccc(-c3cccn3C)cc2)CC2CCC1N2C/C=C/I (centres undefined) | 753 | 2.82 | 270
